Results published in US9315519B2, “Guanidine substituted tetrahydroisoquinoline compounds as factor XIa inhibitors” (BRISTOL-MYERS SQUIBB COMPANY, priority 2012, dated 2016).
Where a name gives a salt, the structure may show the parent alone.

Target: purified human Factor XIa (Homo sapiens (Human), UniProt P03951)
Test: Factor XIa enzyme inhibition assay (chromogenic substrate S-2366)
Format: biochemical
Conditions: substrate S-2366, pH 7.4
Method: The effectiveness of compounds of the present invention as inhibitors of the coagulation factors XIa, VIIa, IXa, Xa, XIIa, plasma kallikrein or thrombin, can be determined using a relevant purified serine protease, respectively, and an appropriate synthetic substrate. The rate of hydrolysis of the chromogenic or fluorogenic substrate by the relevant serine protease was measured both in the absence and presence of compounds of the present invention. […] A decrease in the rate of absorbance or fluorescence change in the presence of inhibitor is indicative of enzyme inhibition. Such methods are known to one skilled in the art. The results of this assay are expressed as the inhibitory constant, Ki.
Factor XIa determinations were made in 50 mM HEPES buffer at pH 7.4 containing 145 mM NaCl, 5 mM KCl, and 0.1% PEG 8000 (polyethylene glycol; JT Baker or Fisher Scientific). Determinations were made using purified human Factor XIa at a final concentration of 75-200 pM (Haematologic Technologies) and the synthetic substrate S-2366 (pyroGlu-Pro-Arg-pNA; CHROMOGENIX® or AnaSpec) at a concentration of 0.0002-0.001 M.
The Michaelis constant, Km, for substrate hydrolysis by each protease, was determined at 25° C. using the method of Lineweaver and Burk. Values of Ki were determined by allowing the protease to react with the substrate in the presence of the inhibitor. Reactions were allowed to go for periods of 20-180 minutes (depending on the protease) and the velocities (rate of absorbance or fluorescence change versus time) were measured. The following relationships were used to calculate Ki values: (vo−vs)/vs=I/(Ki(1+S/Km)) for a competitive inhibitor with one binding site; or vs/vo=A+((B−A)/1+((IC50/(I)n))); and Ki=IC50/(1+S/Km) for a competitive inhibitor where: […]

Chain of purified human Factor XIa (P03951 388-625): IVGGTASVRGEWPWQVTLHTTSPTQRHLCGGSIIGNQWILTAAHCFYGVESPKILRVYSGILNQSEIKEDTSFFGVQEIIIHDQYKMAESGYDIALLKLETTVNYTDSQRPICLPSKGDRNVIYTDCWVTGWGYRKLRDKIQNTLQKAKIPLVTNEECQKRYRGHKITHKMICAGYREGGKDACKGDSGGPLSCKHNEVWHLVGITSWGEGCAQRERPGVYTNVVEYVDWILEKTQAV
Chain of purified human Factor XIa (P03951 19-387 partner): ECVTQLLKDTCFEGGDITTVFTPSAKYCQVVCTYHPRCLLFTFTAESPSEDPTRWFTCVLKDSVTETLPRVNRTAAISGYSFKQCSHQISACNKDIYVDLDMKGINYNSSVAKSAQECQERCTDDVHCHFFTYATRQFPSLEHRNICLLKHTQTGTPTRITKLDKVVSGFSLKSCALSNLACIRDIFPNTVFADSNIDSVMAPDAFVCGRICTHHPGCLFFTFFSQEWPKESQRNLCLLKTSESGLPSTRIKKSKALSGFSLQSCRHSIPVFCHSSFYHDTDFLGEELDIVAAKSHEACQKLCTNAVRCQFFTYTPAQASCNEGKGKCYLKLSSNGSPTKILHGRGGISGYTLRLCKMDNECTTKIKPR

SMILES	Ki
CN1CCN(c2cccc3c2CCN(C(=O)C2CC4(CCN(C(=N)N)CC4)C2)[C@@H]3C(=O)Nc2ccc(C(=O)O)cc2)C(=O)C1 [Example 18, (S)-4-(2-(7-carbamimidoyl-7-azaspiro[3.5]nonane-2-carbonyl)-5-(4-methyl-2-oxopiperazin-1-yl)-1,2,3,4-tetrahydroisoquinoline-1-carboxamido)benzoic acid, bis HCl Salt]	< 5 nM
COC1CCN(c2cccc3c2CCN(C(=O)c2nc4c(s2)CN(C(=N)N)CC4)C3C(=O)Nc2ccc(C(=O)O)cc2)CC1 (stereo not drawn) [Example 5, 4-(2-(5-carbamimidoyl-4,5,6,7-tetrahydrothiazolo[5,4-c]pyridine-2-carbonyl)-5-(4-methoxypiperidin-1-yl)-1,2,3,4-tetrahydroisoquinoline-1-carboxamido)benzoic acid, TFA salt]	< 5 nM
CN1CCN(c2cccc3c2CCN(C(=O)CC2CCN(C(=N)N)CC2)[C@H]3C(=O)Nc2ccc(C(=O)O)cc2)C(=O)C1 [Example 19, (R)-4-(2-(2-(1-carbamimidoylpiperidin-4-yl)acetyl)-5-(4-methyl-2-oxopiperazin-1-yl)-1,2,3,4-tetrahydroisoquinoline-1-carboxamido)benzoic acid, bis-HCl Salt]	382 nM

More lines, in order of falling Ki, values ahead:

Ki	SMILES
190 nM	COC1CCN(c2cccc3c2CCN(C(=O)C2CC4(CCNCC4)C2)C3C(=O)Nc2ccc(C(=O)O)cc2)CC1 (stereo not drawn) [Example 12, 4-(5-(4-methoxypiperidin-1-yl)-2-(7-azaspiro[3.5]nonane-2-carbonyl)-1,2,3,4-tetrahydroisoquinoline-1-carboxamido)benzoic acid, bis TFA Salt]
90.6 nM	N=C(N)N1CCc2nc(C(=O)N3CCc4c(Br)cccc4C3C(=O)Nc3ccc(C(=O)O)cc3)sc2C1 (stereo not drawn) [Example 1, 4-(5-bromo-2-(5-carbamimidoyl-4,5,6,7-tetrahydrothiazolo[5,4-c]pyridine-2-carbonyl)-1,2,3,4-tetrahydroisoquinoline-1-carboxamido)benzoic acid, TFA Salt]
5.68 nM	COC1CCN(c2cccc3c2CCN(C(=O)C2CCN(C(=N)N)CC2)C3C(=O)Nc2ccc(C(=O)O)cc2)CC1 (stereo not drawn) [Example 24, 4-(2-(1-carbamimidoylpiperidine-4-carbonyl)-5-(4-methoxypiperidin-1-yl)-1,2,3,4-tetrahydroisoquinoline-1-carboxamido)benzoic acid, bis-TFA salt]
